# Results: PubChem BioAssay (NCI)
#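 Protocol summary: plate cells (96-well), add compound at 5 concentrations, incubate 48 h, interpolate endpoints linearly. GI50: concentration for 50% inhibition of growth. TGI is the concentration that stops growth completely.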
# Experiments:
# Test in all cases: growth of human tumour cells (NCI), 48 h
# 786-0 renal = system: 786-0 renal
# A498 renal = system: A498 renal
# A549 NSCLC = system: A549 NSCLC
# ACHN renal = system: ACHN renal
# BT-549 breast = system: BT-549 breast
# CAKI-1 renal = system: CAKI-1 renal
# CCRF-CEM leukemia = system: CCRF-CEM leukemia
# COLO 205 colon = system: COLO 205 colon
# DU-145 prostate = system: DU-145 prostate
# EKVX NSCLC = system: EKVX NSCLC
# HCC-2998 colon = system: HCC-2998 colon
# HCT-116 colon = system: HCT-116 colon
# HCT-15 colon = system: HCT-15 colon
# HL-60(TB) leukemia = system: HL-60(TB) leukemia
# HOP-62 NSCLC = system: HOP-62 NSCLC
# HOP-92 NSCLC = system: HOP-92 NSCLC
# HS 578T breast = system: HS 578T breast
# HT29 colon = system: HT29 colon
# IGROV1 ovarian = system: IGROV1 ovarian
# K-562 leukemia = system: K-562 leukemia
# KM12 colon = system: KM12 colon
# LOX IMVI melanoma = system: LOX IMVI melanoma
# M14 melanoma = system: M14 melanoma
# MALME-3M melanoma = system: MALME-3M melanoma
# MCF7 breast = system: MCF7 breast
# MDA-MB-231 breast = system: MDA-MB-231 breast
# MDA-MB-435 = system: MDA-MB-435
# MOLT-4 leukemia = system: MOLT-4 leukemia
# NCI-H226 lung = system: NCI-H226 lung
# NCI-H23 lung = system: NCI-H23 lung
# NCI-H460 lung = system: NCI-H460 lung
# NCI-H522 lung = system: NCI-H522 lung
# NCI/ADR-RES ovarian = system: NCI/ADR-RES ovarian
# OVCAR-3 ovarian = system: OVCAR-3 ovarian
# OVCAR-4 ovarian = system: OVCAR-4 ovarian
# OVCAR-5 ovarian = system: OVCAR-5 ovarian
# OVCAR-8 ovarian = system: OVCAR-8 ovarian
# PC-3 prostate = system: PC-3 prostate
# RPMI-8226 leukemia = system: RPMI-8226 leukemia
# RXF 393 renal = system: RXF 393 renal
# SF-268 CNS = system: SF-268 CNS
# SF-295 CNS = system: SF-295 CNS
# SF-539 CNS = system: SF-539 CNS
# SK-MEL-2 melanoma = system: SK-MEL-2 melanoma
# SK-MEL-28 melanoma = system: SK-MEL-28 melanoma
# SK-MEL-5 melanoma = system: SK-MEL-5 melanoma
# SK-OV-3 ovarian = system: SK-OV-3 ovarian
# SN12C renal = system: SN12C renal
# SNB-19 CNS = system: SNB-19 CNS
# SNB-75 CNS = system: SNB-75 CNS
# SR leukemia = system: SR leukemia
# SW-620 colon = system: SW-620 colon
# T-47D breast = system: T-47D breast
# TK-10 renal = system: TK-10 renal
# U251 CNS = system: U251 CNS
# UACC-257 melanoma = system: UACC-257 melanoma
# UACC-62 melanoma = system: UACC-62 melanoma
# UO-31 renal = system: UO-31 renal
compound,measurement,setting,value
NS(=O)(=O)OCC1OC(n2cnc3cncnc32)C(O)C1O (stereo not given),GI50,786-0 renal,22.8 nM
same,TGI,786-0 renal,69.3 nM
same,GI50,A498 renal,21.6 nM
same,TGI,A498 renal,82.1 nM
same,GI50,A549 NSCLC,24.6 nM
same,TGI,A549 NSCLC,115 nM
same,GI50,ACHN renal,28.8 nM
same,TGI,ACHN renal,94.5 nM
same,GI50,BT-549 breast,27.5 nM
same,TGI,BT-549 breast,91.3 nM
same,GI50,CAKI-1 renal,18.1 nM
same,TGI,CAKI-1 renal,46.3 nM
same,GI50,CCRF-CEM leukemia,38.9 nM
same,TGI,CCRF-CEM leukemia,> 21100 nM
same,GI50,COLO 205 colon,29.1 nM
same,TGI,COLO 205 colon,84.7 nM
same,GI50,DU-145 prostate,17.8 nM
same,TGI,DU-145 prostate,132 nM
same,GI50,EKVX NSCLC,64 nM
same,TGI,EKVX NSCLC,647 nM
same,GI50,HCC-2998 colon,31.2 nM
same,TGI,HCC-2998 colon,97 nM
same,GI50,HCT-116 colon,15.7 nM
same,TGI,HCT-116 colon,33 nM
same,GI50,HCT-15 colon,28.3 nM
same,TGI,HCT-15 colon,105 nM
same,GI50,HL-60(TB) leukemia,55.6 nM
same,GI50,HOP-62 NSCLC,< 10 nM
same,TGI,HOP-62 NSCLC,14.3 nM
same,GI50,HOP-92 NSCLC,18.3 nM
same,TGI,HOP-92 NSCLC,61.9 nM
same,GI50,HS 578T breast,59.2 nM
same,TGI,HS 578T breast,932 nM
same,GI50,HT29 colon,27.5 nM
same,TGI,HT29 colon,105 nM
same,GI50,IGROV1 ovarian,54.1 nM
same,TGI,IGROV1 ovarian,304 nM
same,GI50,K-562 leukemia,33.3 nM
same,TGI,K-562 leukemia,1220 nM
same,GI50,KM12 colon,17.9 nM
same,TGI,KM12 colon,52.2 nM
same,GI50,LOX IMVI melanoma,22.8 nM
same,TGI,LOX IMVI melanoma,54.8 nM
same,GI50,M14 melanoma,30 nM
same,TGI,M14 melanoma,94.4 nM
same,GI50,MALME-3M melanoma,46.9 nM
same,TGI,MALME-3M melanoma,272 nM
same,GI50,MCF7 breast,18.5 nM
same,TGI,MCF7 breast,80.6 nM
same,GI50,MDA-MB-231 breast,10.1 nM
same,TGI,MDA-MB-231 breast,37.6 nM
same,GI50,MDA-MB-435,28.4 nM
same,TGI,MDA-MB-435,84.5 nM
same,GI50,MOLT-4 leukemia,20.9 nM
same,TGI,MOLT-4 leukemia,2420 nM
same,GI50,NCI-H226 lung,34.4 nM
same,TGI,NCI-H226 lung,222 nM
same,GI50,NCI-H23 lung,17.5 nM
same,TGI,NCI-H23 lung,52.5 nM
same,GI50,NCI-H460 lung,24 nM
same,TGI,NCI-H460 lung,76.2 nM
same,GI50,NCI-H522 lung,< 10 nM
same,TGI,NCI-H522 lung,23.2 nM
same,GI50,NCI/ADR-RES ovarian,10.3 nM
same,TGI,NCI/ADR-RES ovarian,50.3 nM
same,GI50,OVCAR-3 ovarian,35 nM
same,TGI,OVCAR-3 ovarian,297 nM
same,GI50,OVCAR-4 ovarian,10.3 nM
same,TGI,OVCAR-4 ovarian,74.5 nM
same,GI50,OVCAR-5 ovarian,< 11.4 nM
same,TGI,OVCAR-5 ovarian,74.7 nM
same,GI50,OVCAR-8 ovarian,< 10 nM
same,TGI,OVCAR-8 ovarian,46.6 nM
same,GI50,PC-3 prostate,31.2 nM
same,TGI,PC-3 prostate,237 nM
same,GI50,RPMI-8226 leukemia,33.3 nM
same,TGI,RPMI-8226 leukemia,147 nM
same,GI50,RXF 393 renal,23.5 nM
same,TGI,RXF 393 renal,65 nM
same,GI50,SF-268 CNS,26.7 nM
same,TGI,SF-268 CNS,279 nM
same,GI50,SF-295 CNS,27.9 nM
same,TGI,SF-295 CNS,120 nM
same,GI50,SF-539 CNS,20.6 nM
same,TGI,SF-539 CNS,46.7 nM
same,GI50,SK-MEL-2 melanoma,35.1 nM
same,TGI,SK-MEL-2 melanoma,133 nM
same,GI50,SK-MEL-28 melanoma,39 nM
same,TGI,SK-MEL-28 melanoma,185 nM
same,GI50,SK-MEL-5 melanoma,40.2 nM
same,TGI,SK-MEL-5 melanoma,144 nM
same,GI50,SK-OV-3 ovarian,34.3 nM
same,TGI,SK-OV-3 ovarian,137 nM
same,GI50,SN12C renal,< 10 nM
same,TGI,SN12C renal,36.9 nM
same,GI50,SNB-19 CNS,12.6 nM
same,TGI,SNB-19 CNS,68.5 nM
same,GI50,SNB-75 CNS,30.9 nM
same,TGI,SNB-75 CNS,400 nM
same,GI50,SR leukemia,15.3 nM
same,TGI,SR leukemia,21600 nM
same,GI50,SW-620 colon,16.7 nM
same,TGI,SW-620 colon,155 nM
same,GI50,T-47D breast,< 13.4 nM
same,TGI,T-47D breast,66.5 nM
same,GI50,TK-10 renal,21.4 nM
same,TGI,TK-10 renal,71.3 nM
same,GI50,U251 CNS,22 nM
same,TGI,U251 CNS,74.9 nM
same,GI50,UACC-257 melanoma,43.1 nM
same,TGI,UACC-257 melanoma,244 nM
same,GI50,UACC-62 melanoma,37.1 nM
same,TGI,UACC-62 melanoma,133 nM
same,GI50,UO-31 renal,25.6 nM
same,TGI,UO-31 renal,106 nM
